Data on one compound can be found in patent US10292992B2, “Selective high-affinity polydentate ligands and methods of making such” (LAWRENCE LIVERMORE NATIONAL SECURITY, LLC, priority 2008, dated 2019).

“Also recorded” adds a separate entry of the source. Where two headings read alike, the source gives them in different places.

Series [1] in a line: General safety study in healthy mice. To be noted: 4 weeks; for adverse effects / toxicity: up to 2000 times the efficacy dose i.p. Type of series: in vivo. The method, then: Each of 3 groups of 7 healthy Balb/c mice were given PBS, 20 or 200 μg of DOTA-chelated SHAL i.p., that is, 200 or 2,000 times the SHAL efficacy dose. Immediately prior to intervention, the mice were observed, weighed and blood counts (red, white and platelets) obtained, then the mice were observed daily, weighed 3 times each week and blood counts measured weekly for 4 weeks after intervention.

Series [2] relates to Raji human HLA-DR10 expressing lymphoma cells. The experiment in a line: Cytotoxicity assay (trypan blue) in Raji cell culture. Type of series: cell-based. How it is done: Raji cells harvested in log growth phase were centrifuged, resuspended in fresh media and counted in 10% trypan-blue dye to determine initial and subsequent viability, as previously described (West et al. (2006) Cancer Biother. Radiopharm., 21: 645-654). When untreated, cells continued to multiply and nonviable cells, initially <5% of total cells, remained so over the course of the assays. To titrate cytotoxic activity, biotinylated tridentate SHAL at concentrations ranging between 0 and 7 nM (pm/ml media) was incubated with 0.5×10^6 cells/ml at 37° C. in a 5% CO2, humidified atmosphere (NAPCO, Portland, Oreg.). After 1, 2 and 3 days, cells were resuspended in trypan blue dye and counted in a hemocytometer. The fractional viability and absolute number of viable and non-viable cells/ml were determined.

On to `CC(C)C(NS(=O)(=O)c1ccc(N=Nc2ccc(N(C)C)cc2)cc1)C(=O)NCCOCCOCC(=O)NC(CCCCNC(=O)C(CCCCNC(=O)CC(=O)Nc1ccccc1Oc1ncc(C(F)(F)F)cc1Cl)NC(=O)COCCOCCNC(=O)c1ccc(N2CCN(Cc3ccc(Cl)cc3)CC2)c([N+](=O)[O-])c1)C(=O)NCCOCCOCC(=O)NC(CCCCNC(=O)CN1CCN(CC(=O)O)CCN(CC(=O)O)CCN(CC(=O)O)CC1)C(=O)O` (centres unmarked) [tridentate SHAL], for which the body weight result in series [1] (20 or 200 μg DOTA-chelated SHAL i.p. (200 or 2,000 times efficacy dose)) was “gained weight”. The blood counts result in series [1] (20 or 200 μg DOTA-chelated SHAL i.p.) is given as “stable blood counts”. Moreover, the “adverse effects / toxicity” value in series [1] is recorded as “no evidence for toxicity; also recorded: did not exhibit signs of adverse events”; in series [1] (listed as SHAL), “no adverse effects”. In addition, the “threshold concentration for cytotoxic activity” value in series [2] (Raji cell culture) is recorded as 0.7 nM. Moreover, the IC50 in series [2] (Raji cell culture, read-out: IC50 concentration for cytotoxic activity) came out at 2.5 nM; in series [2] (biotinylated tridentate SHAL, determined at 2 days, read-out: IC50 SHAL cytotoxic concentration), 2.5 nM. In addition, in series [2] (biotinylated tridentate SHAL, determined at 2 days), the “threshold SHAL cytotoxic concentration” value is listed as 0.7 nM (pm/ml media).
